Results on 4 molecules are retold here after US20130116304A1, “TMEM195 ENCODES FOR TETRAHYDROBIOPTERIN-DEPENDENT ALKYLGLYCEROL MONOOXYGENASE ACTIVITY” (priority 2010, published 2013).

The target of series [1] is T1, alkylglycerol monooxygenase (TMEM195) (Homo sapiens, UniProt Q6ZNB7).
T1 construct: host or cells: CHO-K1 cells, transiently transfected with ExGen 500; pellets opened in water with 0.5% CHAPS
T1 sequence (Q6ZNB7 1-445): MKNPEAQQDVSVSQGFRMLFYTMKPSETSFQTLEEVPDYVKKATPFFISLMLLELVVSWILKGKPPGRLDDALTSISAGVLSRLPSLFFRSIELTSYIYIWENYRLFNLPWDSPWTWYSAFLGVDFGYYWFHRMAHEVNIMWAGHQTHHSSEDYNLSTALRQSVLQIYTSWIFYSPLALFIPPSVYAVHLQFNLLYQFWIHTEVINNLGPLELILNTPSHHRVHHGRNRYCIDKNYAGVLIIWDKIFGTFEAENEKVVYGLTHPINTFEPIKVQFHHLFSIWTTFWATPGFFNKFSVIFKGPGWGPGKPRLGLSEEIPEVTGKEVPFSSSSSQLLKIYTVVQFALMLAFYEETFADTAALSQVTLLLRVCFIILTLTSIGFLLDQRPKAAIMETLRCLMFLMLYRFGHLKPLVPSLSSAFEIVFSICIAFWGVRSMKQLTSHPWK
The experiment in a line: Alkylglycerol monooxygenase activity generated in CHO cells by transfection of TMEM195 and ALDH3A2 (pyrenedecanoic acid, HPLC with fluorescence detection). It is filed as biochemical. The settings on record: mean±SEM.

For series [2], the target named is T2, alkylglycerol monooxygenase (Rattus norvegicus, UniProt A0JPQ8).
T2 construct: those found in rat liver microsomes (KM 8.90 μM for 1-O-pyrenedecylglycerol); from tissue; host or cells: rat liver microsomes
T2 sequence (A0JPQ8 1-447): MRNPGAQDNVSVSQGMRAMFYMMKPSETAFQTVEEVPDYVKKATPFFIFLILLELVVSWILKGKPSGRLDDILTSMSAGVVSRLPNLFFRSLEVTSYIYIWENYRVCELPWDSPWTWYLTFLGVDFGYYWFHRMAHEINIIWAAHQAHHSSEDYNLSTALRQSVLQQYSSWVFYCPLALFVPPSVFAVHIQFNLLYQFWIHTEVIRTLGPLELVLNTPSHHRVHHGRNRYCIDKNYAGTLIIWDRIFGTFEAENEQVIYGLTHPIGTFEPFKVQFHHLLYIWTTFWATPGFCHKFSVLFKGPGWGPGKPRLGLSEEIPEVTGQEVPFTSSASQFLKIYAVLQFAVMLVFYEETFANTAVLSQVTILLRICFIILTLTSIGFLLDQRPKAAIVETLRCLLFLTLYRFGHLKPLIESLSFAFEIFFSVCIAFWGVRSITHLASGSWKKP
The settings on record: rat liver microsomes; from reference (22); cited from earlier work. For orientation: Liver microsomes are a subcellular fraction often used to study metabolism.

Substrate in series [3]: C[C@H](O)[C@H](O)[C@H]1CNc2nc(N)[nH]c(=O)c2N1
The experiment in a line: purified protein, by the assay type. The settings on record: other: activity generated in CHO cells by transfection of TMEM195 and ALDH3A2; KM for substrate or cofactor; mean±SEM; 37.0 °C.

As to `c1cnc2c(c1)ccc1cccnc12` [1,10-Phenanthroline], the IC50 in series [1] (activity generated in CHO cells by transfection, read-out: 50% inhibition of alkylglycerol monooxygenase activity) came out at 1390 ± 380 nM.
One may read the Km as the concentration of substrate that gives half-maximal velocity. Turning to `OC[C@H](O)COCCCCCCCCCCc1ccc2ccc3cccc4ccc1c2c34` [1-O-pyrenedecylglycerol, 1-O-pyrenedecyl-sn-glycerol], the Km is 11 ± 1.1 µM in series [1] (activity generated in CHO cells by transfection of TMEM195 and ALDH3A2, KM for substrate or cofactor, read-out: Michaelis Menten constant (KM)); 8.9 µM in series [2].
`C[C@H](O)[C@H](O)[C@H]1CNc2nc(N)[nH]c(=O)c2N1` [tetrahydrobiopterin]: in series [2], the Km is 2.6 µM.

B1: alkylglycerol monooxygenase (TMEM195) (Homo sapiens) (protein)
chain: MKNPEAQQDVSVSQGFRMLFYTMKPSETSFQTLEEVPDYVKKATPFFISLMLLELVVSWILKGKPPGRLDDALTSISAGVLSRLPSLFFRSIELTSYIYIWENYRLFNLPWDSPWTWYSAFLGVDFGYYWFHRMAHEVNIMWAGHQTHHSSEDYNLSTALRQSVLQIYTSWIFYSPLALFIPPSVYAVHLQFNLLYQFWIHTEVINNLGPLELILNTPSHHRVHHGRNRYCIDKNYAGVLIIWDKIFGTFEAENEKVVYGLTHPINTFEPIKVQFHHLFSIWTTFWATPGFFNKFSVIFKGPGWGPGKPRLGLSEEIPEVTGKEVPFSSSSSQLLKIYTVVQFALMLAFYEETFADTAALSQVTLLLRVCFIILTLTSIGFLLDQRPKAAIMETLRCLMFLMLYRFGHLKPLVPSLSSAFEIVFSICIAFWGVRSMKQLTSHPWK
Consider B1, for which the Km in series [3] was 2.58 ± 0.42 µM.
